Test results as given in patent publication EP0866656B1, “USE OF N-SUBSTITUTED PYRIDONES AS TUMOR NECROSIS FACTOR ALPHA INHIBITORS” (MARGOLIN, Solomon B., priority 1995, dated 1997).
Where “and” joins values, the source holds several entries; their conditions need not be identical. Equal values may be shown once.

Key:
[1] = system: mouse T cells; details: cited from earlier work; for inhibition of T cell activation (proliferation and IL-2 secretion): anti-CD3 antibody
[2] = system: human T cells; details: cited from earlier work; for inhibition of T cell activation (proliferation and IL-2 secretion): anti-CD3 antibody
[3] = system: TNF-α; details: oral dosing, serum TNF-α; cited from earlier work
[4] = system: TNF-α; assay: Endotoxin [LPS] shock in animals (Example III); assay type: in vivo; details: i.p. dosages of 30-400 milligrams per kilogram of body weight
[5] = system: WEHI neoplastic fibroblast cells; assay: Killing of WEHI neoplastic fibroblast cells by TNF-α; assay type: cell-based; details: in vitro, 33 to 300 micrograms/milliliter
Description: (§1) In vitro, pirfenidone at concentrations of 33-900 micrograms/milliliter inhibited the synthesis and/or release of excessive and pathophysiologic amounts of TNF-α from WEHI 164 cells (Table 1, page 40). […]

[6] = system: TNF-α; assay: In vivo induction of circulating (serum) TNF-α by LPS in mice
Description: This model is a modification of that previously described for the in vivo induction of circulating TNF-α, (Haranaka et al., Cancer Immunol. Immunother, 18:87-90,1984).
The bioassays for TNF-α were confirmed in monitoring tests by using a modification of the basic sandwich ELISA method (Winston et al., "Current Protocols in Molecular Biology," page 11.2.1, Ausubel et al., Ed. 1987.) All other plasma levels of TNF were measured using a modification of the basic sandwich ELISA method (Winston et al., "Current Protocols in Molecular Biology," Pg. 11.2.1, Ausubel et al., Ed. 1987.).
The LPS was injected intravenously into the mice at a dosage of 2.5 micrograms (in a volume of […] from a stock solution of 100 micrograms per […]) per mouse, and the Pirfenidone was administered immediately thereafter. The mice were then bled by cardiac puncture 90 minutes later. Subsequently, the serum was analyzed for TNF-α by a ELISA kit (Endogen).

[7] = system: WEHI 164 cells; assay: Inhibition of synthesis and/or release of TNF-α from WEHI 164 cells; assay type: cell-based; details: in vitro, 33-900 micrograms/milliliter
Description: as §1
(§2) The ability of pirfenidone and related compounds to block the synthesis and the release of TNF-α from macrophages, as well as other cells, was bioassayed by the method of Morgan, Mills, D.L. Lefkowitz, and S.S. Lefkowitz ("An Improved Colorimetric Assay for Tumor Necrosis Factor Using […] Cells Cultured on Novel Microtiter Plates," Jour. Immunol. Method., 145:259-262, 1991).

[8] = Diffusion capacity of the lungs (serial DLCO) in patients with pulmonary dysfunction; assay type: in vivo; details: oral, preliminary tests
[9] = system: TNF-α; assay: TNF-α synthesis within lysed macrophages, ELISA (Example II); assay type: cell-based, murine; details: 60 minutes
Description: In order to determine the direct impact of graded concentrations of pirfenidone upon the synthesis of TNF-α within the cytoplasm of murine macrophages, cell cultures of macrophages, grown in appropriate culture media, were treated with the respective concentrations pirfenidone for 60 minutes: (1) without exposure to LPS (controls) and (2) exposure to 1.0 pg/ml of LPS (E. coli.). Promptly after an exposure for 60 minutes, (a) the macrophages were separated from the culture medium by centrifugation, and (b) the macrophages were lysed. Subsequently, the lysed contents (cell cytoplasm and nucleus) from the macrophage cells were assayed via ELISA for TNF-α levels.

[10] = system: macrophages; assay: Toxicity to macrophages in culture; assay type: cell-based, murine; details: 0.9 mg/ml
Description: (§3) The reduction was directly related to the concentration of pirfenidone in the culture media.

[11] = Lethality caused by LPS plus D-galactosamine in mice (Example IV); assay type: in vivo
[12] = system: TNF-α; assay: TNF induction by macrophages exposed to LPS (TNF bioassay of culture medium); assay type: cell-based, murine; details: for TNF induction by macrophages exposed to LPS, Mean +/- S.E.: mean of experiments 1-6
Description: as §3, §2

[13] = system: THP-1 cells; details: LPS-activated THP-1 cells; read-out: 1C50S, inhibition of TNF-α secretion; cited from earlier work
[14] = system: TNF-α; details: cited from earlier work

CC(C)(C)NCC(O)c1ccc(O)c(CO)c1 (stereo not shown) [albuterol]
inhibition of T cell activation (proliferation and IL-2 secretion) [1]: completely inactive | inhibition of T cell activation (proliferation and IL-2 secretion) [2]: completely inactive | duration of efficacy [3]: much shorter duration of action

Cc1ccc(=O)n(-c2ccccc2)c1 [pirfenidone, 5-Methyl-1-phenyl-2-(1H)-pyridone]
pathophysiological toxic effects of TNF-α (endotoxin [LPS] shock) [4]: inhibited or completely blocked | killing of WEHI neoplastic fibroblast cells by TNF-α [5]: did not inhibit | inhibition of the rise in TNF-α serum levels as compared to Control Group ([6]; LPS 2.5 micrograms i.v. per mouse, bled 90 minutes later): 50% | formation and release of TNF-α into the circulation ([6]; mice, 200 milligrams per kilogram intraperitoneal or greater, maintained for hours): complete blockage | efficacy when given orally (rise in TNF-α serum levels) ([6]; oral, same dosages): effective in the same dosages | synthesis and/or release of excessive and pathophysiologic amounts of TNF-α from WEHI 164 cells [7]: inhibited | diffusion capacity of the lungs as measured by serial DLCO determinations [8]: marked, rapid and consistent improvement | LPS induced rise in TNF-α synthesis within cytoplasm and nucleus of macrophages ([9]; LPS (E. coli.) 1.0 pg/ml, concentration related, P< 0.01): inhibition | levels of TNF-α within the cytoplasm of the macrophages ([9]; controls, no exposure to LPS, 0.9 mg/ml): only baseline levels were found | toxicity with macrophages [10]: No toxicity was apparent | serum levels of TNF-α in the surviving mice ([11]; 300 mg/kg i.p. 30 minutes prior to LPS plus D-galactosamine): approached normal baseline levels | mortality ([11]; 300 mg/kg i.p. 30 minutes prior to i.v. LPS plus 600mg/kg i.p. D-galactosamine, observed 2 days, 100.0% without pirfenidone): 10.0% | TNF induction by macrophages exposed to LPS, Mean +/- S.E. ([12]; Pirfenidone 100 micrograms/ml): 144+/-29 Relative TNF Units | TNF induction by macrophages exposed to LPS ([12]; Pirfenidone 100 micrograms/ml, pre-incubation 0 hours): 109 Relative TNF Units and 87 Relative TNF Units | TNF induction by macrophages exposed to LPS ([12]; Pirfenidone 100 micrograms/ml, pre-incubation 24 hours): 209 Relative TNF Units | TNF induction by macrophages exposed to LPS, Mean +/- S.E. ([12]; Pirfenidone 300 micrograms/ml): 84+/-31 Relative TNF Units | TNF induction by macrophages exposed to LPS ([12]; Pirfenidone 300 micrograms/ml, pre-incubation 24 hours): 143 Relative TNF Units | TNF induction by macrophages exposed to LPS, Mean +/- S.E. ([12]; Pirfenidone 900 micrograms/ml): 43+/-18 Relative TNF Units | TNF induction by macrophages exposed to LPS ([12]; Pirfenidone 900 micrograms/ml, pre-incubation 24 hours): 111 Relative TNF Units | level of TNF-α secreted into the culture medium ([12]; thioglycollate-induced murine peritoneal macrophages exposed to LPS, P<0.01): markedly reduced level

OCc1cc(C(O)CNCCCCCCOCCCCc2ccccc2)ccc1O (stereo not shown) [salmeterol]
IC50 [13]: ~100 nM | inhibition of serum TNF-α levels ([14]; LPS/galactosamine endotoxic shock): up to 94% | animals protected from the lethal effects of the LPS/galactosamine mixture ([14]; in vivo): less than 50% | inhibition of T cell activation (proliferation and IL-2 secretion) [1]: able to inhibit | T cell inhibition, fold less potent than that for TNF-α production [1]: about 10 fold | inhibition of T cell activation (proliferation and IL-2 secretion) [2]: able to inhibit | T cell inhibition, fold less potent than that for TNF-α production [2]: about 10 fold | duration of efficacy [3]: 3 h
